Measurements as given in patent publication US20240358692A1, “TREATMENT OF SCLERODERMA” (Aisa Pharma, Inc., priority 2023, published 2024).

Test system: participants with SSc-RP
Assay: SHAQ - Visual Analog Scale - Breathing Problems
Format: in vivo, human
Set-up: Visual Analog Scale-Breathing Problems, In Clinic Visit (Day 12), Mean / Visual Analog Scale-Breathing Problems, In Clinic Visit (Day 12), Median / SHAQ Visual Analogue Scale - Breathing Problems, In-Clinic Visit (Day 12), Mean / SHAQ Visual Analogue Scale - Breathing Problems, In-Clinic Visit (Day 12), Median / SHAQ Visual Analogue Scale - Breathing Problems, Change from Baseline, Median: scale not given here
Details: for % improvement in Breathing: median, SHAQ, mITT Part A
Excerpt: The standard, validated, patient reported outcome measures tool for SSc patients, the Scleroderma Health Assessment Questionnaire (SHAQ), will be used to assess the participant qualify of life. Details are attached in the Appendix. The participant quality of life will be scored, and a disability index calculated for each questionnaire completed by the patient at Screening and each in-clinic visit. The absolute change in participant quality of life from baseline to the end of each dosing period will be calculated similar to frequency data as before.
The standard, validated, patient reported outcome measures tool for SSc patients, the SHAQ, was collected at the time points specified in the study schedules (FIG. 2 and FIGS. 4A and 4B) to assess the participant's quality of life. The SHAQ included a Raynaud's VAS that will also be reported separately.

[1] = Any Cilnidipine (N = 17), Day 12, PP Population, Part A, Subject 01-110 excluded
[2] = Cilnidipine 10 mg, SSc patients, PP, Part A
[3] = Cilnidipine 20 mg, SSc patients, PP, Part A
[4] = Modified ITT Population-Part A, Day 12, dose cilnidipine 10 mg, tadalafil 5 mg, alone or combined as labelled
[5] = Modified ITT Population-Part A, dose cilnidipine 20 mg, tadalafil 5 mg, alone or combined as labelled
[6] = Pooled Cilnidipine (N = 8), Day 12, PP Population, Part A

COCCOC(=O)C1=C(C)NC(C)=C(C(=O)OC/C=C/c2ccccc2)C1c1cccc([N+](=O)[O-])c1 (stereo not drawn) [Cilnidipine]
SHAQ Visual Analogue Scale - Breathing Problems, Change from Baseline, Mean (SD) [1]: 0.025 (1.2310)
SHAQ Visual Analogue Scale - Breathing Problems, Change from Baseline, Median [1]: 0.000
SHAQ Visual Analogue Scale - Breathing Problems, In-Clinic Visit (Day 12), Mean (SD) [1]: 1.388 (2.2783)
SHAQ Visual Analogue Scale - Breathing Problems, In-Clinic Visit (Day 12), Median [1]: 0.300
SHAQ Visual Analogue Scale - Breathing Problems, Percent Change from Baseline, Mean (SD) [1]: 50.12 (200.437) %
SHAQ Visual Analogue Scale - Breathing Problems, Percent Change from Baseline, Median [1]: −16.00%
SHAQ VAS Breathing Problems, Change from Baseline, Max [2]: 0.00
SHAQ VAS Breathing Problems, Change from Baseline, Mean [2]: −0.300
SHAQ VAS Breathing Problems, Change from Baseline, Min [2]: −1.20,
SHAQ VAS Breathing Problems, Change from Baseline, Q1 [2]: −0.600,
SHAQ VAS Breathing Problems, Change from Baseline, Q3 [2]: 0.000
SHAQ VAS Breathing Problems, Day 12, Max [2]: 6.30
SHAQ VAS Breathing Problems, Day 12, Mean [2]: 1.575
SHAQ VAS Breathing Problems, Day 12, Min [2]: 0.00,
SHAQ VAS Breathing Problems, Day 12, Q1 [2]: 0.000,
SHAQ VAS Breathing Problems, Percent Change from Baseline, Max [2]: −16.0
SHAQ VAS Breathing Problems, Percent Change from Baseline, Mean [2]: −16.00
SHAQ VAS Breathing Problems, Percent Change from Baseline, Median [2]: −16.00
SHAQ VAS Breathing Problems, Percent Change from Baseline, Min [2]: −16.0,
SHAQ VAS Breathing Problems, Percent Change from Baseline, Q1 [2]: −16.00,
SHAQ VAS Breathing Problems, Percent Change from Baseline, Q3 [2]: −16.00
% improvement in Breathing (Cilnidipine 20 mg (n = 3)): 67% (median)
SHAQ VAS Breathing Problems, Change from Baseline, Max [3]: 0.60
SHAQ VAS Breathing Problems, Change from Baseline, Median [3]: −0.250
SHAQ VAS Breathing Problems, Change from Baseline, Min [3]: −2.00,
SHAQ VAS Breathing Problems, Change from Baseline, Q1 [3]: −1.400,
SHAQ VAS Breathing Problems, Change from Baseline, Q3 [3]: 0.450
SHAQ VAS Breathing Problems, Day 12, Max [3]: 2.50
SHAQ VAS Breathing Problems, Day 12, Mean [3]: 0.850
SHAQ VAS Breathing Problems, Day 12, Median [3]: 0.450
SHAQ VAS Breathing Problems, Day 12, Min [3]: 0.00,
SHAQ VAS Breathing Problems, Day 12, Q1 [3]: 0.200,
SHAQ VAS Breathing Problems, Day 12, Q3 [3]: 1.500
SHAQ VAS Breathing Problems, Percent Change from Baseline, Max [3]: 150.0
SHAQ VAS Breathing Problems, Percent Change from Baseline, Min [3]: −100.0,
SHAQ VAS Breathing Problems, Percent Change from Baseline, Q1 [3]: −83.33,
SHAQ VAS Breathing Problems, Percent Change from Baseline, Q3 [3]: 90.79
Visual Analog Scale-Breathing Problems, Change from Baseline, Mean [4]: −0.300
Visual Analog Scale-Breathing Problems, Change from Baseline, Median [4]: 0.000
Visual Analog Scale-Breathing Problems, Percent Change from Baseline, Mean [4]: −16.00%
Visual Analog Scale-Breathing Problems, Percent Change from Baseline, Median [4]: −16.00%
Visual Analog Scale-Breathing Problems, Change from Baseline, Median (Modified ITT Population-Part A, Day 12, dose cilnidipine 20 mg, tadalafil 5 mg, alone or combined as labelled): −0.800
Visual Analog Scale-Breathing Problems, In Clinic Visit (Day 12), Median (Modified ITT Population-Part A, dose cilnidipine 10 mg, tadalafil 5 mg, alone or combined as labelled): 0.000
Visual Analog Scale-Breathing Problems, In Clinic Visit (Day 12), Mean [5]: 0.300
Visual Analog Scale-Breathing Problems, In Clinic Visit (Day 12), Median [5]: 0.400
SHAQ Visual Analogue Scale - Breathing Problems, In-Clinic Visit (Day 12), Mean (Pooled Cilnidipine 20 mg and Cilnidipine 20 mg + Tadalafil 5 mg (N = 8), Day 12, PP Population, Part A): 1.400
SHAQ Visual Analogue Scale - Breathing Problems, Change from Baseline, Mean (SD) [6]: −0.388 (0.8725)
SHAQ Visual Analogue Scale - Breathing Problems, In-Clinic Visit (Day 12), Mean (SD) [6]: 1.213 (2.2229)
SHAQ Visual Analogue Scale - Breathing Problems, In-Clinic Visit (Day 12), Median [6]: 0.200
SHAQ Visual Analogue Scale - Breathing Problems, Percent Change from Baseline, Mean (SD) [6]: −0.22 (97.721) %
% improvement in Breathing (Pooled Cilnidipine (n = 7)): 41% (median)
